Test results from publication PMC5598505 (Toxicology Reports, 2014).

Molecular target: T1, aromatase (CYP19A1) (Homo sapiens, UniProt P11511)
T1 sequence (P11511 1-503): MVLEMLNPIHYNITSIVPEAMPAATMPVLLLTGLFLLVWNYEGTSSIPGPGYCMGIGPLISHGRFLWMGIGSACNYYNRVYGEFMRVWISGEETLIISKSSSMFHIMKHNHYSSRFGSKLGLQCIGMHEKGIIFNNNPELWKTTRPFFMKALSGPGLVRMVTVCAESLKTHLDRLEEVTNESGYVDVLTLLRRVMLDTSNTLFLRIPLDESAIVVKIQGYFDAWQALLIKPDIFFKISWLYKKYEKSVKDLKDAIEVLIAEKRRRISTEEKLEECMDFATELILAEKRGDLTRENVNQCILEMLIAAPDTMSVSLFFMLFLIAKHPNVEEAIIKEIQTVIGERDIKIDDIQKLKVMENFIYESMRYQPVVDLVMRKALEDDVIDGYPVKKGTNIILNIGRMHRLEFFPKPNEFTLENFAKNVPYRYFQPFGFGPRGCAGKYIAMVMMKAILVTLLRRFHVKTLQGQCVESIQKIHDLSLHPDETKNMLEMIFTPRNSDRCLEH
Experiment: tritiated water-release aromatase assay in KGN cells after 24-h exposure
Assay type: cell-based

- IC50: 8 nM
Compound: CC(C)=CCc1c(O)cc(O)c2c1O[C@H](c1ccc(O)cc1)CC2=O [8-PN, 8-prenylnaringenin]
